Measurements published in US20230352136A1, “SYSTEMS AND METHODS TO EVALUATE DRUG-INDUCED GASTROINTESTINAL DYSRHYTHMIA” (The Chinese University of Hong Kong, priority 2022, published 2023).

Legend:
[1] = tested on: stomach pacemaker potentials; experiment: MEA recording of pacemaker potentials (slow waves), isolated stomach; assay type: cell-based, Suncus murinus
Experimental: (§1) Pacemaker potentials were recorded extracellularly on a 60-channel MEA system using full-thickness GI segments isolated from Suncus murinus. Basic slow-wave parameters, including frequency, amplitude, slope, period, and power partitions, were derived. Signal regularity was also evaluated using detrended fluctuation analysis and sample entropy analysis.
(§2) Electrical recordings were taken after the animals were euthanised by carbon dioxide asphyxiation. […] The mesentery was removed, and the lumen contents were flushed with Krebs' medium. Segments (−1 cm) of duodenum, ileum, and colon were then isolated, but the stomach was kept intact. All tissue segments and the entire stomach were incubated in Krebs' medium containing nifedipine (1 μM; Sigma Aldrich, St Louis, MO, USA) for 15 min to inhibit smooth muscle activity. Pacemaker potentials were recorded using an MEA platform (MEA1060 1200×; Multichannel Systems, Reutlingen, Germany) as previously described. Briefly, tissues were placed onto the electrode field of an MEA chip (60-channel, 8×8 configuration, 3D-tip-shaped electrodes with a height of […] and an inter-electrode distance of 200 μm; Ayanda Biosystems SA, Lausanne, Switzerland). Intestinal segments were aligned horizontally to the recording electrode field, while the stomach was oriented with the antrum facing the recording electrode field. The chamber temperature was maintained at 37° C. and the sampling frequency was 1 kHz. […] All data were recorded and saved using MC_Rack (v 4.6.2, Multichannel Systems).
(§3) Data analysis included basic slow-wave feature extraction using a custom automated program. […] The time point of drug administration was automatically identified based on the signal disturbance. The period of signal disturbance (20 s before and 40 s after the peak of the disturbance) was excluded from the analysis. Data were filtered using a passband between 0.1 Hz and 1 Hz and a stopband between 0.01 Hz and 2 Hz. The basic slow-wave features extracted were similar to those extracted in the inventors' previous studies. However, instead of using several templates and scripts written in Microsoft Excel and Spike 2, a one-step automatic and blinded MATLAB programme was used for data analysis. There were four major changes to the data analysis process as compared to the inventors' previous studies. First, auto-identification of the drug disturbance time point was used, rather than manual identification. Second, standardised signal filters were built in MATLAB to match the entire data analysis pipeline. […] Frequency partitioning was performed by segmenting the power spectrum of 0-50 cpm into the following four segments: brady-rhythm (within the range 2-[DF−1] cpm), normal-rhythm ([DF±1] cpm), tachy-rhythm (within the range [DF+1]-40 cpm), and out-of-range frequencies (<2 cpm and >40 cpm). Third, waveforms were identified using the MATLAB ‘findpeaks’ function, with a minimum peak height of […] at baseline and […] after drug treatment, with a step time of 5.4 s for the intestine and 12 s for the stomach. The average peak-to-peak amplitude, slope, and period were derived for all detected waveforms. Fourth, propagation velocity was derived using phase-difference measurements, based on the auto-select seed electrode with the highest percentage of normal rhythms.
(§4) Dominant activation pattern identification included a phase-based analysis performed as previously described (Liu et al., 2021). Briefly, high-frequency spikes with amplitudes greater than […] were masked. Continuous frequencies were identified using continuous wavelet transformation, and the transformed data were used to plot spectrograms. […] High quality data were subjected to Hilbert transformation to identify the phase and frequency of the signals. Individual activation times were clustered using k-means clustering every 20 s and major activation patterns were grouped using a structural similarity index.

[2] = tested on: ileum pacemaker potentials; experiment: MEA recording of pacemaker potentials (slow waves), isolated ileum; assay type: cell-based, Suncus murinus; details: ileal tissues
Experimental: as §1, §2, §3, §4

Cl.NCCc1ccc(O)c(O)c1 [dopamine, 3-Hydroxytyramine hydrochloride]
representative spectrogram, effect ([1]; 100 μM): reduced the DP of the DF | wave fronts counted in representative spatio-temporal map (1 min) ([1]; 100 μM, 9 before treatment): ~10 | DFA fluctuation function (smaller scale 3-25) ([1]; 100 μM, baseline 2.36±0.08, p<0.05, n=7): 2.27±0.16 | number of groups of activation patterns ([1]; 100 μM, baseline 4.3±1.0, p<0.05, n=8): 5.3±1.0 | average frequency (AF) ([1]; 100 μM, baseline 9.8±1.2, p<0.05, n=8): 11.8±1.8 cpm | percentage of tachy-rhythms ([1]; 100 μM, baseline 36.1±12.8, p<0.05, n=8): 60.2±15.4% | percentage of normal rhythms ([1]; 100 μM, baseline 55.1±7.2, p<0.01, n=8): 23.6±13.1% | dominant power (DP) of slow waves ([1]; 100 μM, baseline 888.0±691.5, p<0.05, n=8): 253.2±416.1 μV^2 | percentage of dominant patterns (based on post-treatment data, FIG. 3E), change vs baseline ([1]; 100 μM, p>0.05, n=4): No significant differences | percentage of dominant baseline activation patterns, change vs baseline ([1]; 100 μM, p>0.05, n=4, FIG. 3D): No significant differences | average SampEn (larger scale 6-50), effect ([1]; 100 uM, p>0.05, n=7): did not change | average SampEn (smaller scale 1-5), effect ([1]; 100 uM, p>0.05, n=7): did not change | DFA fluctuation function (larger scale 26-46), effect ([1]; 100 μM, p>0.05, n=7): did not change | amplitude of slow waves, change vs baseline ([1]; 100 μM, p>0.05, n=8): No significant differences | dominant frequency (DF), change vs baseline ([1]; 100 μM, p>0.05, n=8): No significant differences | propagation velocities, effect ([1]; 100 μM, p>0.05, n=8): did not affect | slope of waveforms, change vs baseline ([1]; 100 μM, p>0.05, n=8): No significant differences | waveform period, change vs baseline ([1]; 100 μM, p>0.05, n=8): No significant differences | wave propagation in video (FIG. 11B), effect ([1]; 100 M): wave propagation was inhibited, and amplitudes were reduced | DFA fluctuation function (larger scale 26-46) ([2]; 100 nM, baseline 1.71±0.17, p<0.05, n=6): 1.55±0.13 | DFA fluctuation function (smaller scale 3-25) ([2]; 100 nM, baseline 2.35±0.14, p<0.05, n=6): 2.28±0.11 | waveform period ([2]; 100 nM, baseline 2.66±0.40, p<0.05, n=7): 3.73±1.05 | percentage of dominant patterns (based on post-treatment data, FIG. 3E), second pattern ([2]; 100 nM, baseline 15.6±10.3, p<0.05, n=7): 4.2±4.2% | percentage of dominant patterns (based on post-treatment data, FIG. 3E), third pattern ([2]; 100 nM, baseline 16.8±6.6, p<0.01, n=7): 3.0±2.6% | percentage of dominant baseline activation patterns, third pattern ([2]; 100 nM, baseline 17.2±4.8, p<0.0001, n=7): 2.2±2.6% | percentage of dominant baseline activation patterns, second pattern ([2]; 100 nM, baseline 21.5±1.7, p<0.0001, n=7): 2.6±1.6% | average frequency (AF) ([2]; 100 nM, baseline 23.5±3.0, p<0.05, n=7): 19.4±3.6 cpm | percentage of brady-rhythms ([2]; 100 nM, baseline 31.8±11.7, p<0.05, n=7): 60.0±26.0% | percentage of dominant baseline activation patterns, first pattern ([2]; 100 nM, baseline 32.8±5.7, p<0.01, n=7): 3.8±4.5% | percentage of normal rhythms ([2]; 100 nM, baseline 46.1±5.6, p<0.01, n=7): 4.8±17.0% | amplitude of slow waves ([2]; 100 nM, baseline 165.2±20.5, p<0.001, n=7): 119.2±20.0 μV | slope of waveforms ([2]; 100 nM, baseline 257.5±59.8, p<0.01, n=7): 160.1±42.0 μV s^−1 | dominant power (DP) of slow waves ([2]; 100 nM, baseline 780.4±276.9, p<0.001, n=7): 177.5±83.0 μV^2 | DFA fluctuation function (larger scale 26-46) ([2]; 1 μM, baseline 1.78±0.24, p<0.05, n=8): 1.64±0.28 | number of groups of activation patterns ([2]; 1 μM, baseline 6.3±0.8, p<0.05, n=7): 7±0.8 | percentage of dominant patterns (based on post-treatment data, FIG. 3E), first pattern ([2]; 1 μM, baseline 8.9±9.0, p<0.01, n=6): 31.4±13.7% | percentage of brady-rhythms ([2]; 1 μM, baseline 27.5±7.8, p<0.05, n=7): 46.3±22.7% | percentage of dominant baseline activation patterns, first pattern ([2]; 1 μM, baseline 35.2±6.0, p<0.001, n=6): 13.0±6.7% | percentage of normal rhythms ([2]; 1 μM, baseline 50.6±10.8, p<0.01, n=7): 24.5±11.8% | amplitude of slow waves ([2]; 1 μM, baseline 187.1±76.9, p<0.01, n=7): 138.0±66.2 μV | slope of waveforms ([2]; 1 μM, baseline 300.9±117.5, p<0.01, n=7): 204.4±91.9 μV s^−1 | dominant power (DP) of slow waves ([2]; 1 μM, baseline 1,070.5±745.1, p<0.05, n=7): 460.3±297.0 μV^2 | representative spectrogram (left), effect on DF ([2]; 10 μM): slightly shifted towards a higher frequency | representative spectrogram (right), effect ([2]; 10 μM): extra peaks appearing to the left of the baseline DF | wave fronts counted in representative spatio-temporal map (1 min) ([2]; 10 μM, 26 before treatment): 30 | waveform period ([2]; 10 μM, baseline 2.30±0.18, p<0.05, n=6): 3.05 ± 0.68 s | number of groups of activation patterns ([2]; 10 μM, baseline 9.3±0.7, p<0.05, n=6): 6.9±1.0 | percentage of dominant patterns (based on post-treatment data, FIG. 3E), first pattern ([2]; 10 μM, baseline 17.2±11.5, p<0.05, n=5): 32.3±13.2% | percentage of brady-rhythms ([2]; 10 μM, baseline 32.8±12.9, p<0.05, n=6): 63.3±28.5% | percentage of dominant baseline activation patterns, first pattern ([2]; 10 μM, baseline 35.7±8.4, p<0.05, n=5): 19.2±16.4% | percentage of normal rhythms ([2]; 10 μM, baseline 50.9±9.8, p<0.0001, n=6): 9.2±10.9% | amplitude of slow waves ([2]; 10 μM, baseline 229.6±115.9, p<0.05, n=6): 149.1±56.7 μV | slope of waveforms ([2]; 10 μM, baseline 383.7±185.8, p<0.05, n=6): 238.2±95.7 μV s^−1 | DFA fluctuation function (larger scale 26-46) ([2]; 100 μM, baseline 1.63±0.23, p<0.05, n=7): 1.43±0.21 | DFA fluctuation function (smaller scale 3-25) ([2]; 100 μM, baseline 2.35±0.12, p<0.05, n=7): 2.25±0.05 | percentage of dominant patterns (based on post-treatment data, FIG. 3E), third pattern ([2]; 100 μM, baseline 17.8±7.4, p<0.05, n=4): 6.8±6.1% | percentage of dominant baseline activation patterns, third pattern ([2]; 100 μM, baseline 19.1±2.8, p<0.01, n=4): 5.9±6.6% | percentage of dominant baseline activation patterns, second pattern ([2]; 100 μM, baseline 23.5±2.8, p<0.001, n=4): 5.7±5.1% | percentage of dominant baseline activation patterns, first pattern ([2]; 100 μM, baseline 27.6±4.1, p<0.01, n=4): 9.4±9.5% | dominant frequency (DF), change vs baseline ([2]; 0.1-100 μM, p>0.05, n=6-7): No significant differences | propagation velocities, effect ([2]; 0.1-100 μM, p>0.05, n=6-7): did not affect | average SampEn (larger scale 6-50), effect ([2]; 0.1-100 μM, p>0.05, n=6-8): did not change | average SampEn (smaller scale 1-5), effect ([2]; 0.1-100 μM, p>0.05, n=6-8): did not change | DFA fluctuation function (smaller scale 3-25) ([2]; 1 M, baseline 2.29±0.23, p<0.05, n=8): 2.19±0.20 | waveform period ([2]; 1 M, baseline 2.53±0.50, p<0.05, n=7): 3.10 ± 0.74 s | DFA fluctuation function (smaller scale 3-25) ([2]; 10 M, baseline 2.24±0.32, p<0.05, n=8): 2.13±0.34
